target: T1, human FAAH (Homo sapiens, UniProt O00519); assay: Human FAAH biochemical inhibition assay (AMC arachidonoyl amide fluorescence); conditions: Table 2, human FAAH (no asterisk); read-out: Activity (Ki)
T1 construct: host or cells: COS-7 cells, transient transfection; 13,000 g membrane fraction solubilised in 1% Triton X-100
T1 sequence (O00519 1-579): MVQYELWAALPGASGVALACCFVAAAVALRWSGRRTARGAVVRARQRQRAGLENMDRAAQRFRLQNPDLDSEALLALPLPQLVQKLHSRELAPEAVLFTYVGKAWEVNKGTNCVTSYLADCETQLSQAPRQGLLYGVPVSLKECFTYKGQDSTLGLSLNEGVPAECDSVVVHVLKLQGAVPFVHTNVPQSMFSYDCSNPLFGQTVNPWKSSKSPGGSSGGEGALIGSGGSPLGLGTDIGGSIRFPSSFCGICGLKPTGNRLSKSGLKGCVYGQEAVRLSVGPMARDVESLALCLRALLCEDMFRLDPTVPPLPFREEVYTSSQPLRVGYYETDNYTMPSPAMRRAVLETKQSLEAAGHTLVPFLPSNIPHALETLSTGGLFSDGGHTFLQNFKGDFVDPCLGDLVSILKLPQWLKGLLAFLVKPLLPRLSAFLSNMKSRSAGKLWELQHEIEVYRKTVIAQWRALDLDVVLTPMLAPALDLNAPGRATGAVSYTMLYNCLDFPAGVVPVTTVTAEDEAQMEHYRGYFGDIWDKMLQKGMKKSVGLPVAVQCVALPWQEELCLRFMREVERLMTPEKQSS
Description: The resulting solution is added into one dish of 30-40% confluent COS-7 cells in a drop-wise manner. The COS-7 cell dish is subsequently incubated for 48 hours. The cells are then harvested.
Harvest procedure: Media was aspirated from the dishes and the cells rinsed with 10 mL PBS. The PBS was removed and 3 mLs of PBS added to the dish. The dish was scraped to resuspend the cells, and the subsequent cell suspension collected into a 15 ml conical tube. The cells were pelleted by centrifugation at 1200 rpm for 5 minutes in a bench top centrifuge. PBS was removed and the cell pellet snap frozen in liquid nitrogen, store at −80 C.
The pellets were dounce homogenized and then sonicated to produce cell extract. The cell extract was subsequently centrifuged at 1000 g to remove cellular debris. The pellet was discarded and the supernatant centrifuged at 13,000 g for 20 minutes. The pellet contained membrane bound FAAH. The supernatant was discarded and the pellet resolubilized.
(2) Re-solubilization: The fraction of interest, (13,000 g, membrane fraction) was re-suspended in re-suspension buffer (20 mM Hepes pH 7.8, 10% v/v Glycerol, 1 mM EDTA, 1% Triton X-100) (2.3 mL re-suspension and the sample incubated on ice for 1 hour and then centrifuged to at 13,000 g remove any particulate matter. The supernatant containing solubilized human FAAH was aliquoted and snap frozen in liquid nitrogen and stored at −80° C. until use.
FAAH reaction buffer: 50 mM Hepes (pH 7.5), 1 mM EDTA, 0.2% Triton X-100.
Human FAAH assay; Experimental Protocol: A 0.1 mg/mL Human FAAH solution is made up in FAAH reaction buffer, and 24 ul pipetted into a 384 well plate. To this is added 1 uL of a 3 fold serially diluted inhibitor from a DMSO stock solution. The FAAH solution and inhibitor are incubated for 30 minutes at room temperature. The FAAH reaction is initiated by the addition of 25 uL of 40 uM AMC Arachidonoyl Amide in FAAH reaction buffer, yielding a final reaction human FAAH preparation concentration of 0.05 mg/ml and AMC-Arachidonoyl substrate concentration of 20 uM, reaction volume 50 uL. The reaction is allowed to proceed for 4 hours at room temperature. […] The microtiter plate in read in the envision plate reader.

Compound | Ki [nM]
OB(O)c1ccc(OCCc2cccc(OCCCc3ccccc3)c2)cc1F [II-17] | < 10
CCCCOc1cccc(CCOc2ccc(B(O)O)c(F)c2)c1 [II-18] | < 10
O=C(CCCCc1ccccc1)Nc1cccc(CCOc2ccc(B(O)O)c(F)c2)c1 [II-19] | < 10
OB(O)c1ccc(-c2cccc(F)c2)c(Cl)c1 [II-20] | 10 to 100
CCCCCC(=O)Nc1cccc(CCOc2ccc(B(O)O)c(F)c2)c1 [II-21] | < 10
CN(C)CCCC(=O)Nc1cccc(CCOc2ccc(B(O)O)c(F)c2)c1 [II-22] | 10 to 1000
OB(O)c1csc2c(Cl)cccc12 [II-23] | 10 to 100
OB(O)c1csc2cc(Cl)ccc12 [II-24] | 10 to 100
O=C1c2cc(B(O)O)ccc2CC1Cc1ccccc1 (stereo not drawn) [II-25] | < 10
OB(O)c1ccc(-c2cccc(-c3ccccc3)c2)cc1F [II-26] | < 10
O=C(CCc1ccc(B(O)O)c(F)c1)c1ccccc1 [II-27] | < 10
OB(O)c1ccc(COCc2ccccc2)cc1F [II-28] | < 10
O=C1c2ccc(B(O)O)cc2CC1Cc1ccccc1 (stereo not drawn) [II-29] | < 10
OB(O)c1ccc2c(c1)Cc1ccccc1-2 [II-30] | 10 to 100
OB(O)c1ccc2sc3ccccc3c2c1 [II-31] | 10 to 1000
Cc1ccc(C)n1-c1ccc(B(O)O)cc1 [II-32] | > 1000
Cc1cc(B(O)O)ccc1-c1ccccc1 [II-33] | 10 to 100
Nc1ccc(CCOc2ccc(B(O)O)c(F)c2)cc1 [II-35] | < 10
OB(O)c1ccc(-c2nc3ccccc3s2)cc1 [II-36] | > 1000
Nc1cccc(CCOc2ccc(B(O)O)c(F)c2)c1 [II-37] | < 10
COc1cccc2c(C(O)O)coc12 [II-38] | > 1000
CC(C)(C)OC(=O)Nc1ccc(CCOc2ccc(B(O)O)c(F)c2)cc1 [II-39] | 10 to 100
O=[N+]([O-])c1cccc(CCOc2ccc(B(O)O)c(F)c2)c1 [II-40] | > 1000

Compound | Ki [nM]
Cn1c(-c2ccc(B(O)O)cc2)nc2ccccc21 [II-41] | > 1000
Cc1nc2cc(B(O)O)ccc2s1 [II-42] | 10 to 1000
OB(O)c1ccc(COCc2ccccc2)c(Cl)c1 [II-43] | < 10
O=C(CCc1ccccc1)c1ccc(B(O)O)c(F)c1 [II-44] | < 10
Cc1ncc(-c2ccc(B(O)O)cc2)s1 [II-45] | > 1000
OB(O)c1ccc(CCCc2ccccc2)cc1F [II-46] | < 10
OB(O)c1ccc2occc2c1 [II-47] | 10 to 1000
OB(O)c1ccc(COCc2cc(Cl)cc(Cl)c2)cc1F [II-48] | < 10
OB(O)c1ccc2sccc2c1 [II-49] | 10 to 1000
CCOc1ccc(CCOc2ccc(B(O)O)c(F)c2)cc1 [II-50] | < 10
COc1cccc(CCOc2ccc(B(O)O)c(F)c2)c1 [II-51] | < 10
OB(O)c1ccc(OCCc2ccc(C(F)(F)F)cc2)cc1F [II-52] | < 10
OB(O)c1ccc(OCCc2cccc(C(F)(F)F)c2)cc1F [II-53] | < 10
c1ccc(CCCB(Oc2cccc3cccnc23)c2ccc(Oc3ccccc3)cc2)cc1 [II-54] | < 10
CCCCB(Oc1cccc2cccnc12)c1ccc(Oc2ccccc2)cc1 [II-55] | < 10
OB(O)c1ccc(OCCc2ccccc2)c(Cl)c1 [II-57] | < 10
Cc1sc2ccccc2c1B(O)O [II-58] | > 1000
OB(O)c1ccc(-c2ccco2)cc1 [II-59] | 10 to 100
Cc1ccc2ccc(B(O)O)c(F)c2n1 [II-60] | > 1000
OB(O)c1ccc(OCCc2cccc(Cl)c2)cc1F [II-61] | < 10
OB(O)c1ccc(OCCc2ccc(Cl)c(Cl)c2)cc1F [II-62] | < 10
OB(O)c1ccc(C(OCc2ccccc2)c2ccccc2)cc1 (stereo not drawn) [II-63] | 10 to 1000
OB(O)c1ccc(-c2nc3ccccc3[nH]2)cc1 [II-64] | > 1000

Compound | Ki [nM]
Cc1ccc2scc(B(O)O)c2c1 [II-65] | 10 to 1000
OB(c1ccccc1)c1ccc(Oc2ccccc2)cc1 [II-66] | 10 to 100
OB(O)c1ccc2scc(COc3ccccc3)c2c1 [II-67] | > 1000
OB(O)c1ccc(CCCc2ccccc2)cc1 [II-68] | < 10
OB(O)c1ccc(OCCN2CCCCC2)cc1F [II-69] | 10 to 1000
OB(O)c1ccc(COCc2ccc(C(F)(F)F)cc2)cc1F [II-71] | < 10
OB(O)c1ccc(COCc2cccc(C(F)(F)F)c2)cc1F [II-72] | < 10
OB(O)c1ccc2sc(COc3ccccc3)cc2c1 [II-73] | < 10
OB(O)c1ccc(COCc2ccccc2C(F)(F)F)cc1F [II-74] | < 10
c1ccc(Oc2ccc(B(Oc3cccc4cccnc34)c3ccccc3)cc2)cc1 [II-75] | < 10
O=C(CCCc1ccc(B(O)O)cc1)c1ccccc1 [II-76] | < 10
OB(O)c1ccc(-c2cnco2)cc1 [II-77] | 10 to 100
CN(C)c1cccc(Oc2ccc(B(O)O)cc2)c1 [II-78] | < 10
[O-][S+](Cc1ccc(B(O)O)c(F)c1)c1ccccc1 (stereo not drawn) [II-79] | > 1000
O=S(=O)(Cc1ccccc1)Cc1ccc(B(O)O)c(F)c1 [II-80] | > 1000
[O-][S+](Cc1ccccc1)Cc1ccc(B(O)O)c(F)c1 (stereo not drawn) [II-81] | 10 to 1000
OB(O)c1ccc(Cc2ccccc2)cc1 [II-82] | < 10
OB(c1ccccc1)c1ccccc1 [II-83] | > 1000
OB(O)c1ccc(C(O)c2ccccc2)cc1 (stereo not drawn) [II-84] | 10 to 100
OB(O)c1ccc(Oc2cccc(F)c2)c(F)c1 [II-85] | < 10
C[N+]12CC(=O)O[B-]1(c1ccc(-c3cccc(F)c3)cc1F)OC(=O)C2 (stereo not drawn) [II-86] | < 10
CNc1cc(B(O)O)cc(C(=O)O)c1 [II-87] | > 1000
CN(C)c1cc(B(O)O)cc(C(=O)O)c1 [II-88] | > 1000

Compound | Ki [nM]
CN(Cc1ccccc1)Cc1ccc(B(O)O)c(F)c1 [II-90] | 10 to 100
OB(O)c1ccc(CN2CCc3ccccc32)cc1F [II-91] | < 10
OB(O)c1ccc(OCCC2CCCCC2)cc1F [II-92] | < 10
OB(O)c1ccc(COC2C3CC4CC(C3)CC2C4)cc1 (stereo not drawn) [II-93] | 10 to 100
OB(O)c1ccc(COCc2ccccc2-c2ccccc2)cc1 [II-94] | 10 to 100
OB(O)c1ccc2c(c1)CCC(OCc1ccccc1)C2 (stereo not drawn) [II-95] | < 10
O=C(N[C@H](COc1ccc(B(O)O)c(F)c1)Cc1ccccc1)c1ccccc1 [II-96] | 10 to 100
CN(Cc1ccccc1)[C@H](COc1ccc(B(O)O)c(F)c1)Cc1ccccc1 [II-97] | 10 to 1000
CN(C)[C@H](COc1ccc(B(O)O)c(F)c1)Cc1ccccc1 [II-98] | > 1000
OB(O)Cc1ccc(-c2ccccc2)cc1 [II-99] | > 1000
OB(O)c1ccc(COCC2CCCCC2)cc1 [II-100] | 10 to 100
OB(O)c1ccc(COCC23CC4CC(CC(C4)C2)C3)cc1 [II-101] | 10 to 100
OB(O)c1ccc(COCC2CCCCO2)cc1 (stereo not drawn) [II-102] | 10 to 100
CN(C)[C@@H](COc1ccc(B(O)O)c(F)c1)Cc1ccccc1 [II-103] | > 1000
OB(O)c1ccc2oc(COc3ccccc3)cc2c1 [II-104] | < 10
O=C(N[C@@H](COc1ccc(B(O)O)c(F)c1)Cc1ccccc1)c1ccccc1 [II-105] | 10 to 1000
CN(Cc1ccccc1)[C@@H](COc1ccc(B(O)O)c(F)c1)Cc1ccccc1 [II-106] | 10 to 1000
CC(C)(C)OC(=O)N1CCC[C@H]1COCc1ccc(B(O)O)cc1 [II-107] | 10 to 100
OB(O)c1ccc(OC[C@@H](COCc2ccccc2)OCc2ccccc2)cc1F [II-108] | 10 to 100
OB(O)c1ccc(OCCc2cccnc2)cc1F [II-109] | < 10
OB(O)c1ccc(OCCc2ccncc2)cc1F [II-110] | < 10
